Experimental data as given in article PMC10202811 (Nature Medicine, 2023).
Where “and” joins values, the source holds several entries; their conditions need not be identical. Identical values can stand only once.

Tested on: ALK-driven refractory or relapsed neuroblastoma
Assay: Functional imaging response: MIBG Curie score / FDG-PET avidity
Assay type: in vivo, human
Parameters: key to Symbol to indicate Soft tissue became MIBG non-avid: *: Symbol to indicate Soft tissue became MIBG non-avid
Conditions: for complete resolution of MIBG avidity (CR) in bone and/or soft tissue: patients with BOR of SD/MR/PR
From the text: Patients underwent disease staging at baseline, after courses 2 and 4 and then every four courses thereafter. The primary endpoint for response analysis is the BOR, defined as the best response observed before progression or start of another therapy. […] Response was graded according to the NANT response criteria version 2.0 (ref. [26]), modified from the International Neuroblastoma Response Criteria (INRC)[48]. NANT response criteria use three components for assessment of overall response: soft tissue response assessed by anatomical imaging and avidity on MIBG or FDG-PET; bone response assessed by uptake in bone by MIBG or bone involvement on FDG-PET; and bone marrow response assessed by morphology on bilateral aspirates and biopsies. Each response component (soft tissue, bone and bone marrow) are graded as CR, PR, SD and PD. Overall response grading is defined as: CR, if a response of CR in all components that are involved at baseline; PR, if a response of PR or better in all involved components; MR, if a response of PR or better but with at least one involved component as SD and no PD in all involved components; SD, if a response of SD in all involved components; and PD, if a response of PD in at least one involved component. The overall response definitions are identical to overall responses (CR, PR, SD and PD) as defined by the INRC. Response assessment is initially performed by sites and reviewed against source documents by NANT operations. Additional blinded central review of all radiological or pathological data was conducted for patients with overall PR or better and, in addition, radiologic pathological data of all involved sites for patients with MR to assign the final BOR on this study. Response by MIBG was determined using the Curie criteria. RR was determined as the proportion of patients with BOR of CR and PR in each cohort. Based on an international consensus by the National Cancer Institute Clinical Trials Planning Committee to refine tumor site eligibility criteria and evaluation of disease response for early-phase clinical trials in children with high-risk recurrent, refractory and progressive neuroblastoma, we also performed an ad hoc analysis to determine a modified RR that includes the proportion of patients with BOR of CR, PR and MR.

Structure (SMILES): C[C@H]1Oc2cc(cnc2N)-c2c(nn(C)c2C#N)CN(C)C(=O)c2ccc(F)cc21 [Lorlatinib, (10R)-7-amino-12-fluoro-2,10,16-trimethyl-15-oxo-10,15,16,17-tetrahydro-2H-8,4-(metheno)pyrazolo[4,3-h][2,5,11]-benzoxadiazacyclotetradecine-3-carbonitrile]
- responders achieving MIBG complete responses (13 of 27 responders, all cohorts): 48%
- MIBG Curie Score % change from baseline (Cohort A1, individual patient): -87% and -94% and -100% and 600% and 50% and 40% and 33% and -10% and -18% and -70%
- Symbol to indicate Soft tissue became MIBG non-avid (Cohort A1, individual patient): *
- MIBG Curie Score % change from baseline (Cohort A2, individual patient): -4.76% and -25% and -44% and -56% and -67% and -95% and -100%
- Symbol to indicate Soft tissue became MIBG non-avid (Cohort A2, individual patient): *
- MIBG Curie Score % change from baseline (Cohort B2, individual patient): 100% and 56% and 1% and -33% and -73% and -75% and -100%
- Symbol to indicate Soft tissue became MIBG non-avid (Cohort B2, individual patient): *
- Curie Score Percent Change (Patient ID 2): -100
- Minimum Curie (Patient ID 2, Enrollment Curie 5): 0
- Curie Score Percent Change (Patient ID 3): -94.44
- Minimum Curie (Patient ID 3, Enrollment Curie 18): 1
- Curie Score Percent Change (Patient ID 9): -10
- Minimum Curie (Patient ID 9, Enrollment Curie 10): 9
- Curie Score Percent Change (Patient ID 10): 50
- Minimum Curie (Patient ID 10, Enrollment Curie 4): 6
- Curie Score Percent Change (Patient ID 11): -100
- Minimum Curie (Patient ID 11, Enrollment Curie 1): 0
- Curie Score Percent Change (Patient ID 12): 33.33
- Minimum Curie (Patient ID 12, Enrollment Curie 6): 8
- Curie Score Percent Change (Patient ID 17): -86.66
- Minimum Curie (Patient ID 17, Enrollment Curie 15): 2
- Curie Score Percent Change (Patient ID 21): -100
- Minimum Curie (Patient ID 21, Enrollment Curie 3): 0
- Curie Score Percent Change (Patient ID 25): -100
- Minimum Curie (Patient ID 25, Enrollment Curie 2): 0
- Curie Score Percent Change (Patient ID 26): -18.18
- Minimum Curie (Patient ID 26, Enrollment Curie 11): 9
- Curie Score Percent Change (Patient ID 30): 40
- Minimum Curie (Patient ID 30, Enrollment Curie 5): 7
- Curie Score Percent Change (Patient ID 31): -100
- Minimum Curie (Patient ID 31, Enrollment Curie 3): 0
- Curie Score Percent Change (Patient ID 32): 600
- Minimum Curie (Patient ID 32, Enrollment Curie 2): 14
- Curie Score Percent Change (Patient ID 38): -100
- Minimum Curie (Patient ID 38, Enrollment Curie 3): 0
- Curie Score Percent Change (Patient ID 40): -70
- Minimum Curie (Patient ID 40, Enrollment Curie 10): 3
- complete resolution of MIBG avidity (CR) in bone and/or soft tissue (A1, five of eight): 63%
- complete resolution of MIBG avidity (CR) in bone and/or soft tissue (A2, three of ten): 30%
- complete resolution of MIBG avidity (CR) in bone and/or soft tissue (B2, one of four): 25%
- complete resolution of metabolic activity in soft tissue lesions by MIBG/FDG-PET (ten of 22 patients with avid soft tissue lesions and BOR of SD/MR/PR): 45%
